Measured values published in paper PMC6416464 (Drug Metabolism Letters, 2018).
Like-named read-outs stand apart in the source and are kept apart here.

What was measured:
[1] = target: T1, rCYP1A2 (Homo sapiens, UniProt P05177); assay: Metabolic stability / reaction phenotyping with recombinant human CYP1A2; conditions: for % Metabolized at 30 min Incubation with Human Liver Fractions/Enzymes rCYP1A2: 1 µM test compound, 100 pmol/mL; for % Contribution of CYP Enzymes (fmCYP) in Metabolism, CYP1A2 / Predicted Microsomal Clint, CYP1A2 / rCYP Clint, CYP1A2: human, recombinant human CYP1A2, 1 µM, pH 7.4
T1 sequence (P05177 1-516): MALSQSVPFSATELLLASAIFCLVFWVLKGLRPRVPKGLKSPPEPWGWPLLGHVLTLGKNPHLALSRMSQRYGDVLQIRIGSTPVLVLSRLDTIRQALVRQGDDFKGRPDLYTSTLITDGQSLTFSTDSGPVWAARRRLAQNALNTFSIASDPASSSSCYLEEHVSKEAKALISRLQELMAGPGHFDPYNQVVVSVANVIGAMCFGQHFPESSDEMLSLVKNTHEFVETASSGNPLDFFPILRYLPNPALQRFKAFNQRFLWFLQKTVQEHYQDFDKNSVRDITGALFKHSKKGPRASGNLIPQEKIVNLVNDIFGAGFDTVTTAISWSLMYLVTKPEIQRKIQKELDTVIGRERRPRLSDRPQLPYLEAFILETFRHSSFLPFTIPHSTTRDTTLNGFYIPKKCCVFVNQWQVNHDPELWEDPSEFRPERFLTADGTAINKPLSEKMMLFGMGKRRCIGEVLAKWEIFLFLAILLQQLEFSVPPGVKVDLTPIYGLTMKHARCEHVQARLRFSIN

[2] = Metabolic stability, incubation with human liver cytosol; format: in vitro ADME; conditions: 1 µM test compound, 1 mg/mL protein
[3] = target: rCYP2C9 (Homo sapiens, UniProt P11712); assay: Metabolic stability / reaction phenotyping with recombinant human CYP2C9; conditions: for % Metabolized at 30 min Incubation with Human Liver Fractions/Enzymes rCYP2C9: 1 µM test compound, 100 pmol/mL; for % Contribution of CYP Enzymes (fmCYP) in Metabolism, CYP2C9 / Predicted Microsomal Clint, CYP2C9 / rCYP Clint, CYP2C9: human, recombinant human CYP2C9, 1 µM, pH 7.4
rCYP2C9, sequence (P11712 whole entry): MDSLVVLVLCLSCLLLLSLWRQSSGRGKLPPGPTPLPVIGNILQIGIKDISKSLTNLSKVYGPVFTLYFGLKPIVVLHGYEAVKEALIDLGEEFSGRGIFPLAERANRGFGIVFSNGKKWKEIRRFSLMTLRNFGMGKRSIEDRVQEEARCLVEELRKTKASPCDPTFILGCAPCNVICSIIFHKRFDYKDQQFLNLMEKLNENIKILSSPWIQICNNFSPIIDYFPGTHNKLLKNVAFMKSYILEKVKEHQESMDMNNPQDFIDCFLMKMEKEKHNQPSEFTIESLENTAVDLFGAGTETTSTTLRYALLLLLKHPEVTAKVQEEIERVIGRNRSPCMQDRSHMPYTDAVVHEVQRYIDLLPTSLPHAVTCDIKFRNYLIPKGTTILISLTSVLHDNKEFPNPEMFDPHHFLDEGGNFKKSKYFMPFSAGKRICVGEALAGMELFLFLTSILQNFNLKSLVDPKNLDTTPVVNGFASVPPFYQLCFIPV

[4] = target: T2, CYP2C8 (Homo sapiens, UniProt P10632); assay: CYP inhibition in human liver microsomes, CYP2C8; conditions: human, human liver microsomes, pH 7.4, probe paclitaxel
T2 sequence (P10632 1-490): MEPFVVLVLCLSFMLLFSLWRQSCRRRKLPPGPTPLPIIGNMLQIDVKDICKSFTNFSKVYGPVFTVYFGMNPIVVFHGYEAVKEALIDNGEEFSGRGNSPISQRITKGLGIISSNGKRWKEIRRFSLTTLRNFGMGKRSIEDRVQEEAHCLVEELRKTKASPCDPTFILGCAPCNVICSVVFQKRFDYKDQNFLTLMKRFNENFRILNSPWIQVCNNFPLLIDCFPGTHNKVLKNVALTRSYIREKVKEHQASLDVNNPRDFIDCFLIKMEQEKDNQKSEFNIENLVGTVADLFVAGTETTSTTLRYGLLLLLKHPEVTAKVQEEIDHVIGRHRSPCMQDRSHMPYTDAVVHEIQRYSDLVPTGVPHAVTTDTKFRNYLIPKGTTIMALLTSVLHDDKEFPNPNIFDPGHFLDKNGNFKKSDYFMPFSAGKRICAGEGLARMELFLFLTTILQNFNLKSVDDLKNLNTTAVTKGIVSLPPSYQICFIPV

[5] = target: T3, CYP3A4 (Homo sapiens, UniProt P08684); assay: in vitro; conditions: microsomes, pH 7.4
T3 sequence (P08684 2-503): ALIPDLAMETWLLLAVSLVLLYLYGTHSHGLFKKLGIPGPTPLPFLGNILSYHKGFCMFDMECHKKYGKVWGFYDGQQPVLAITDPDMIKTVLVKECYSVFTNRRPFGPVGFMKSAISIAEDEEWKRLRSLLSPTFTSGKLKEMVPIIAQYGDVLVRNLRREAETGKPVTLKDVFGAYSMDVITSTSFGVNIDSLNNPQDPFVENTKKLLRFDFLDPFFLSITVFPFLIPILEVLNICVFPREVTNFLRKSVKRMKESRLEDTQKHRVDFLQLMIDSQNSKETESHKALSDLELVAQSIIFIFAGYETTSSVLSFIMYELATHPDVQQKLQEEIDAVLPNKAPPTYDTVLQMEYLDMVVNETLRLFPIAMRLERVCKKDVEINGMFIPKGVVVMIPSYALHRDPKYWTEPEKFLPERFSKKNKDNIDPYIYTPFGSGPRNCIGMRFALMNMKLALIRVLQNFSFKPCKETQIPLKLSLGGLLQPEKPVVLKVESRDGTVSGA

[6] = target: T4, CYP1A2 (Homo sapiens, UniProt P05177); assay: CYP inhibition in human liver microsomes, CYP1A2
T4 sequence (P05177 1-516): T1 sequence (P05177 1-516)

[7] = Metabolic stability, incubation with human liver microsomes; conditions: 1 µM test compound, 0.5 mg/mL protein
[8] = target: rCYP2C19 (Homo sapiens, UniProt P33261); assay: Metabolic stability / reaction phenotyping with recombinant human CYP2C19; conditions: for % Metabolized at 30 min Incubation with Human Liver Fractions/Enzymes rCYP2C19: 1 µM test compound, 100 pmol/mL
rCYP2C19, sequence (P33261 whole entry): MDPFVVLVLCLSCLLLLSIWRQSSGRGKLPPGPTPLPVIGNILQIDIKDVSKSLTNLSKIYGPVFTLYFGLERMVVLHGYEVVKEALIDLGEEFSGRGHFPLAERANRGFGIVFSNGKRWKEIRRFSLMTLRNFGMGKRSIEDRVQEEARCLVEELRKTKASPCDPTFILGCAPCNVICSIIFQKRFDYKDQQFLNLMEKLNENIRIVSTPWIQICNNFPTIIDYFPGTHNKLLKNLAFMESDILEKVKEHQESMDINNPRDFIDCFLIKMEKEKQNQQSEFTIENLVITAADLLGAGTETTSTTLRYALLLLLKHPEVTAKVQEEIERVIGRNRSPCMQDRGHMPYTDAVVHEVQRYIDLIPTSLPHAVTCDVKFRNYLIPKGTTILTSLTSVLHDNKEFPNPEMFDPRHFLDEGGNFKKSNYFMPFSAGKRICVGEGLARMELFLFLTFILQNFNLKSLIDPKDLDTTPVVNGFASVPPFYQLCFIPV

[9] = target: T5, rCYP2C8 (Homo sapiens, UniProt P10632); assay: Metabolic stability / reaction phenotyping with recombinant human CYP2C8; conditions: for % Metabolized at 30 min Incubation with Human Liver Fractions/Enzymes rCYP2C8: 1 µM test compound, 100 pmol/mL; for % Contribution of CYP Enzymes (fmCYP) in Metabolism, CYP2C8 / Predicted Microsomal Clint, CYP2C8 / rCYP Clint, CYP2C8: human, recombinant human CYP2C8, 1 µM, pH 7.4
T5 sequence (P10632 1-490): T2 sequence (P10632 1-490)

[10] = target: rCYP2D6 (Homo sapiens, UniProt P10635); assay: Metabolic stability / reaction phenotyping with recombinant human CYP2D6; conditions: for % Metabolized at 30 min Incubation with Human Liver Fractions/Enzymes rCYP2D6: 1 µM test compound, 100 pmol/mL; for % Contribution of CYP Enzymes (fmCYP) in Metabolism, CYP2D6 / Predicted Microsomal Clint, CYP2D6 / rCYP Clint, CYP2D6: human, recombinant human CYP2D6, 1 µM, pH 7.4
rCYP2D6, sequence (P10635 whole entry): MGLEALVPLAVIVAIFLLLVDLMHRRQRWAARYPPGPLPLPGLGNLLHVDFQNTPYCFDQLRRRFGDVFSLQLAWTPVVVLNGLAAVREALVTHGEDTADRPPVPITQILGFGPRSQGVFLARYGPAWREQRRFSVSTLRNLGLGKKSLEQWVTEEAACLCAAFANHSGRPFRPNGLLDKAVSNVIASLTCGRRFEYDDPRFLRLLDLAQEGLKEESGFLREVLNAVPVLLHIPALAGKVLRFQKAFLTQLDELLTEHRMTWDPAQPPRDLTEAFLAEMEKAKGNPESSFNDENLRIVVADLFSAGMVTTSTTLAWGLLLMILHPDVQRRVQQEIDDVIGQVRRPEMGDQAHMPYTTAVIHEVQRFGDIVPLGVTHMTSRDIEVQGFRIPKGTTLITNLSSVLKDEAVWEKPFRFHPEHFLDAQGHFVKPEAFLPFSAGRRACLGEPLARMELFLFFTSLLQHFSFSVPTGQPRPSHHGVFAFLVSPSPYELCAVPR

[11] = target: T3, CYP3A4; assay: in vitro; conditions: microsomes, pH 7.4, % Inhibition of Control Activity CYP3A4 (substrate, testosterone)
[12] = target: rCYP3A4 (Homo sapiens, UniProt P08684)
rCYP3A4, sequence (P08684 whole entry): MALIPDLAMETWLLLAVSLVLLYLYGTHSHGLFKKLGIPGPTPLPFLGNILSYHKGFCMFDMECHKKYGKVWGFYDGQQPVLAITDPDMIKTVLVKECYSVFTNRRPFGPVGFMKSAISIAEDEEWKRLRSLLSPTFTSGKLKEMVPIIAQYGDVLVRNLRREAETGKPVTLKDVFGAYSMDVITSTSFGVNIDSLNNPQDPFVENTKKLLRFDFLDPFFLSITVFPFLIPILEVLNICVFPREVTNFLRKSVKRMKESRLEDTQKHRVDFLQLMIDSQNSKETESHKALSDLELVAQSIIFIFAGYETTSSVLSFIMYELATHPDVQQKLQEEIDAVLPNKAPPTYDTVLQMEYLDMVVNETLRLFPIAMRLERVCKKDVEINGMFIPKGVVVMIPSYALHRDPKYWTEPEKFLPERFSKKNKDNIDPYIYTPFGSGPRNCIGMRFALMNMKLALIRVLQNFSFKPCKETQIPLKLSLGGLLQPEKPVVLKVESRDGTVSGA

[13] = target: CYP2C19 (Homo sapiens, UniProt P33261); assay: CYP inhibition in human liver microsomes, CYP2C19; conditions: inhibitor 10 µM; HLM; NI: No Inhibitin; 10 µM
CYP2C19, sequence (P33261 whole entry): as the sequence (P33261 whole entry) above

[14] = target: CYP2C9 (Homo sapiens, UniProt P11712); assay: CYP inhibition in human liver microsomes, CYP2C9
CYP2C9, sequence (P11712 whole entry): as the sequence (P11712 whole entry) above

[15] = human, recombinant human CYP2C19, 1 µM, pH 7.4
[16] = human, recombinant enzyme, pH 7.4

With `CNC(=O)Oc1cc(C)c(SC)c(C)c1` [Methiocarb, methiocarb] the “% Metabolized at 30 min Incubation with Human Liver Fractions/Enzymes rCYP1A2” value [1] was 46.94%, the “% Contribution of CYP Enzymes (fmCYP) in Metabolism, CYP1A2” value [1] was 4.75% and the “Predicted Microsomal Clint, CYP1A2” value [1] was 10.987 µL/min/mg Protein. The “rCYP Clint, CYP1A2” value [1] was 0.211 µL/min/pmol, the “% Metabolized at 30 min Incubation with Human Liver Fractions/Enzymes Cytosol” value [2] was 6.93% and the “% Metabolized at 30 min Incubation with Human Liver Fractions/Enzymes rCYP2C9” value [3] was 6.50%. For the same compound, the “% Contribution of CYP Enzymes (fmCYP) in Metabolism, CYP2C9” value [3] was 0.93%, the “Predicted Microsomal Clint, CYP2C9” value [3] was 2.151 µL/min/mg Protein and the “rCYP Clint, CYP2C9” value [3] was 0.022 µL/min/pmol. The inhibition at 2 µM [4] was less than 0%, the inhibition at 10 µM [4] was less than 0% and the inhibition at 2 µM [5] was less than 0%. The inhibition at 10 µM [5] was less than 0%, the IC50 [6] was 710 nM and the “% Metabolized at 30 min Incubation with Human Liver Fractions/Enzymes HLM” value [7] was 78.39%. For the same compound, the “% Metabolized at 30 min Incubation with Human Liver Fractions/Enzymes rCYP2C19” value [8] was 19.42%, the “% Contribution of CYP Enzymes (fmCYP) in Metabolism, CYP2C19” value [8, 15] was 0.59% and the “Predicted Microsomal Clint, CYP2C19” value [8, 15] was 1.367 µL/min/mg Protein. For the same compound, the “rCYP Clint, CYP2C19” value [8, 15] was 0.072 µL/min/pmol, the “% Metabolized at 30 min Incubation with Human Liver Fractions/Enzymes rCYP2C8” value [9] was 41.44% and the “% Contribution of CYP Enzymes (fmCYP) in Metabolism, CYP2C8” value [9] was 4.94%. The “Predicted Microsomal Clint, CYP2C8” value [9] was 11.416 µL/min/mg Protein, the “rCYP Clint, CYP2C8” value [9] was 0.178 µL/min/pmol and the “% Metabolized at 30 min Incubation with Human Liver Fractions/Enzymes rCYP2D6” value [10] was 99.43%. The “% Contribution of CYP Enzymes (fmCYP) in Metabolism, CYP2D6” value [10] was 7.46%, the “Predicted Microsomal Clint, CYP2D6” value [10] was 17.239 µL/min/mg Protein and the “rCYP Clint, CYP2D6” value [10] was 1.724 µL/min/pmol. The inhibition at 2 µM [11] was 8.34%, the inhibition at 10 µM [11] was 29.7% and the “% Metabolized at 30 min Incubation with Human Liver Fractions/Enzymes rCYP3A4” value ([12]; 1 µM test compound, 100 pmol/mL, 30 min) was 98.38%. For the same compound, the “Predicted Microsomal Clint, CYP3A4” value ([12]; human, pH 7.4) was 188.076 µL/min/mg Protein, the “% Contribution of CYP Enzymes (fmCYP) in Metabolism, CYP3A4” value [12, 16] was 81.34% and the “rCYP Clint, CYP3A4” value [12, 16] was 1.694 µL/min/pmol.
With `CC(C)(O)c1ccccc1CC[C@@H](SCC1(CC(=O)O)CC1)c1cccc(/C=C/c2ccc3ccc(Cl)cc3n2)c1` [Montelukast, montelukast, reference compound] the “% Metabolized at 30 min Incubation with Human Liver Fractions/Enzymes rCYP1A2” value [1] was 9.37%, the “% Contribution of CYP Enzymes (fmCYP) in Metabolism, CYP1A2” value [1] was 4.21% and the “Predicted Microsomal Clint, CYP1A2” value [1] was 1.705 µL/min/mg Protein. For the same compound, the “rCYP Clint, CYP1A2” value [1] was 0.033 µL/min/pmol, the “% Metabolized at 30 min Incubation with Human Liver Fractions/Enzymes Cytosol” value [2] was 10.13% and the “% Metabolized at 30 min Incubation with Human Liver Fractions/Enzymes rCYP2C9” value [3] was 10.85%. The “% Contribution of CYP Enzymes (fmCYP) in Metabolism, CYP2C9” value [3] was 9.08%, the “Predicted Microsomal Clint, CYP2C9” value [3] was 3.675 µL/min/mg Protein and the “rCYP Clint, CYP2C9” value [3] was 0.038 µL/min/pmol. For the same compound, the inhibition at 2 µM [4] was 93.7%, the inhibition at 10 µM [4] was 97.3% and the inhibition at 2 µM [5] was 20%. For the same compound, the inhibition at 10 µM [5] was 48%, the “% Inhibition of Control Activity CYP1A2” value ([6]; inhibitor 10 µM, HLM, NI: No Inhibitin, 10 µM) was 24.96% and the “% Inhibition of Control Activity CYP2C19” value [13] was 22.70%. For the same compound, the “% Metabolized at 30 min Incubation with Human Liver Fractions/Enzymes HLM” value [7] was 25.71%, the “% Metabolized at 30 min Incubation with Human Liver Fractions/Enzymes rCYP2C19” value [8] was 0.00% and the “% Metabolized at 30 min Incubation with Human Liver Fractions/Enzymes rCYP2C8” value [9] was 52.29%. For the same compound, the “% Contribution of CYP Enzymes (fmCYP) in Metabolism, CYP2C8” value [9] was 39.00%, the “Predicted Microsomal Clint, CYP2C8” value [9] was 15.789 µL/min/mg Protein and the “rCYP Clint, CYP2C8” value [9] was 0.247 µL/min/pmol. The “% Metabolized at 30 min Incubation with Human Liver Fractions/Enzymes rCYP2D6” value [10] was 7.46%, the “% Contribution of CYP Enzymes (fmCYP) in Metabolism, CYP2D6” value [10] was 0.64% and the “Predicted Microsomal Clint, CYP2D6” value [10] was 0.258 µL/min/mg Protein. The “rCYP Clint, CYP2D6” value [10] was 0.026 µL/min/pmol, the IC50 [14] was 1340 nM and the inhibition at 2 µM [11] was 0.79%. For the same compound, the inhibition at 10 µM [11] was 11.2%, the “Predicted Microsomal Clint, CYP3A4” value ([12]; human, pH 7.4) was 19.054 µL/min/mg Protein and the “% Metabolized at 30 min Incubation with Human Liver Fractions/Enzymes rCYP3A4” value ([12]; human, recombinant enzyme, 0.5 h, pH 7.4) was 40.25%. For the same compound, the “% Contribution of CYP Enzymes (fmCYP) in Metabolism, CYP3A4” value [12, 16] was 47.07% and the “rCYP Clint, CYP3A4” value [12, 16] was 0.172 µL/min/pmol.
